From patent US11992011B2, “Compounds for controlling plant pathogens” (VIB VZW, priority 2017, dated 2024)

Key:
Meloidogyne graminicola [1] = experiment: Meloidogyne graminicola infection in rice, first experiment (Example 3); assay type: in vivo; details: infected rice, 100 μM, median (IQR), n = 8; for Gall number: harvested twelve days after infection; for Galls per AR: per adventitious root
Description: (§1) Seeds were germinated on wet tissue paper at 30° C. in the dark for three days, followed by transfer to individual PVC tubes (for nematode infection) containing SAP (Reversat et al., 1999). SAP (sand-absorbent polymer) is a mixture of fine silica sand and ultra-absorbent acrylic copolymer (DCM AquaPerla, DSM, Grobbendonk, Belgium) in a ratio of 1 kg sand to 1.5 g of dry copolymer.
(§2) Before use, each tube was washed in soapy water and dried in an oven at 70° C. for two days. […] The first two days after transfer, the tubes were covered with a polyethylene film (Saran Film, Dow Chemicals, Midland, USA) to prevent excessive evaporation. Seedlings were watered three times per week with 8 ml of Hoagland solution (Hoagland, 1938).
(§3) M. graminicola was extracted from infected Echinocloa crus-galli roots grown in potting soil at 25° C. Roots were washed until most soil was removed, after which they were cut into short fragments (with special care taken to cut open any outwardly visible galls). The cut material was put in […] pore diameter sieves which were put into a tap water bath at room temperature for three days. The water was then poured over a […] mesh sieve. The sieve surface was washed with approximately 50 ml of non-demineralized water, which was collected into a beaker before it could seep through the sieve.
(§4) The number of nematodes in five 100 μl samples taken from the nematode suspension was counted under a stereo microscope and averaged to determine inoculum concentration. Each plant (grown per the protocol outlined in the previous section) was then inoculated by injecting the desired number of nematodes in the SAP surrounding the root system using a micro-pipette.
(§5) Infection experiments with M. graminicola were performed by inoculating host plants 14 days after transfer to SAP by introducing the desired amount of J2 juveniles next to the root system using a micro pipette. Rice plants (cv. Nipponbare or Kitaake) were inoculated with 250 J2 juveniles per plant; wheat plants (cv. Sahara) were inoculated with 600 J2 juveniles per plant. Plants were harvested 14 days after inoculation. At this point, the plants were phenotyped by measuring the shoot and root length with a ruler, counting the number of adventitious roots and in some experiments by measuring leaf area using the EasyLeafArea software (Easlon and Bloom, 2014) and by determining shoot dry mass after 72 hours of drying in an oven at 70° C. Root systems were then stained in acid fuchsine as described in (Byrd et al., 1983) and left to destain in glycerol with 1 ml/l fuming HCl added for approximately ten days. The number of galls and nematodes was then counted using a binocular microscope.
Rice plants were germinated for three days, transferred to SAP and grown for twelve days. After twelve days, 240 M. graminicola J2 nematodes on average were added to each plant. Plants were harvested twelve days after infection and roots were stained with acid fuchsine to visualize galls and nematodes.

Meloidogyne graminicola [2] = experiment: Meloidogyne graminicola infection in rice, second experiment (Example 4); assay type: in vivo; details: infected rice, 100 μM; for median number of galls lower compared to untreated controls: 13 days after infection; for plants in which necrosis was present: absent in control plants; for Gall number: harvested 13 days after inoculation; for Gall number / Fraction of empty galls / Galls per adventitious root / Number of J2 / Number of J3 + J4 / Number of adults (with eggs) / Number of adults (without eggs) / Total nematodes: median (IQR); for Likelihood of necrosis: value ± spread
Description: as §1, §2, §3, §4
as §5, with “microscope. […]” for “microscope.”
The second experiment was methodologically similar to the first. This time, plants were grown for 15 days before inoculation with 210 nematodes on average and harvested 13 days after inoculation. […]

Meloidogyne graminicola [3] = experiment: Meloidogyne graminicola infection in wheat cv. Sahara (Example 5); assay type: in vivo; details: infected wheat, foliar spray; for Number of galls per AR / Number of galls: n = 9; for Number of galls: per root system; for reduction in gall numbers: vs control
Description: For Examples 1, 5 and 10, seeds of the winter wheat cultivar Sahara (Aveve Agrarisch, Landen, Belgium) were used. Seeds were washed in a 10% ethanol solution to remove any residual traces of fungicide and then germinated on wet paper at room temperature for four days; seeds were transferred to SAP tubes and placed in a growth chamber (25° C., 16 hours per day of light). Plants were watered with 8 ml of half-strength Hoagland solution every two days for the first ten days and with 8 ml of full strength Hoagland solution every two days afterwards.
Unless otherwise mentioned, all chemicals for nematode experiments were applied as a foliar spray consisting of the target compound at a concentration of 300 μM together with 0.1% (v/v) Tween 20 surfactant (Calbiochem) in distilled water. Again unless otherwise mentioned, all treatments for the nematode experiments were carried out three times: one and eight days before pathogen inoculation and seven days after pathogen inoculation. In all cases, plants were sprayed until run-off with an atomizer.
as §5
In this experiment, the compounds PA, MDCA and 4-IBA were tested as foliar spray in the monocot staple crop wheat (Triticum aestivum, cv. Sahara) against the nematode Meloidogyne graminicola. The bacterial compound LPS (lipopolysaccharide), which is a potent inducer of the plant immune system and a known priming agent (Desaki et al., 2006), was also included as a positive control.

OsPAL2 = experiment: qRT-PCR in rice roots, OsPAL2 (Example 19); assay type: in vivo, Oryza sativa; details: rice cv. Bomba root tissue; 100 μM; harvested 13 days after germination; N=3 pools
Description: (§6) After quality control, qPCR was carried out.

OsPAL6 = experiment: qRT-PCR in rice roots, OsPAL6 (Example 19); assay type: in vivo, Oryza sativa; details: rice cv. Bomba root tissue; 100 μM; harvested 13 days after germination; N=3 pools
Description: as §6

OsC4H = experiment: qRT-PCR in rice roots, OsC4H (Example 19); details: rice cv. Bomba root tissue; 100 μM; harvested 13 days after germination; N=3 pools

Compound	Gall number (Meloidogyne graminicola [1])	Empty galls (Meloidogyne graminicola [1])	Fraction of small galls (Meloidogyne graminicola [1])	Number of J2 (Meloidogyne graminicola [1])	Number of J3 + J4 (Meloidogyne graminicola [1])	Number of adults (with eggs) (Meloidogyne graminicola [1])	Number of adults (without eggs) (Meloidogyne graminicola [1])	Total nematodes (Meloidogyne graminicola [1])	Galls per AR (Meloidogyne graminicola [1])	median number of galls lower compared to untreated controls (Meloidogyne graminicola [2])	plants in which necrosis was present (Meloidogyne graminicola [2])	Gall number (Meloidogyne graminicola [2])	Fraction of empty galls (Meloidogyne graminicola [2])	Galls per adventitious root (Meloidogyne graminicola [2])	Number of J2 (Meloidogyne graminicola [2])	Number of J3 + J4 (Meloidogyne graminicola [2])	Number of adults (with eggs) (Meloidogyne graminicola [2])	Number of adults (without eggs) (Meloidogyne graminicola [2])	Total nematodes (Meloidogyne graminicola [2])	Likelihood of necrosis (Meloidogyne graminicola [2])	also measured
O=C(O)/C=C/c1ccc2c(c1)OCO2 [MDCA, 3,4-methylenedioxycinnamic acid]	11.5 (IQR = 3.3)	0.5 (IQR = 1.3)	0.84 (IQR = 0.13)	7.5 (IQR = 8.0)	8.0 (IQR = 8.3)	3.0 (IQR = 13.3)	20.0 (IQR = 7.3)	41.5 (IQR = 14.3)	0.78 (IQR = 0.22)	28%	roughly 75%	8.0 (IQR = 1.0)	0.11 (IQR = 0.03)	0.80 (IQR = 0.17)	0.0 (IQR = 0.0)	7.0 (IQR = 5.0)	0.0 (IQR = 1.0)	10.0 (IQR = 2.0)	17.0 (IQR = 5.0)	0.78 ± 0.44	Number of galls per AR (Meloidogyne graminicola [3]): 2.4 ± 0.8; Number of galls (Meloidogyne graminicola [3]): 24.6 ± 6.3; reduction in gall numbers (Meloidogyne graminicola [3]): −35%; Fold change vs. control, OsPAL2 expression (OsPAL2): 1.86; Fold change vs. control, OsPAL6 expression (OsPAL6): 1.40; Fold change vs. control, OsC4H expression (OsC4H): 3.73
O=C(O)c1ccc2c(c1)OCO2 [PA, Piperonylic acid]	12.5 (IQR = 4.0)	0.0 (IQR = 1.0)	0.76 (IQR = 0.08)	9.0 (IQR = 8.3)	5.0 (IQR = 5.5)	0.5 (IQR = 1.3)	19.5 (IQR = 11.8)	32.5 (IQR = 17.8)	0.83 (IQR = 0.29)	36%	roughly 75%	7.0 (IQR = 1.8)	0.13 (IQR = 0.17)	0.62 (IQR = 0.13)	0.0 (IQR = 1.0)	8.0 (IQR = 2.5)	0.0 (IQR = 0.0)	5.0 (IQR = 1.8)	13.5 (IQR = 2.5)	0.70 ± 0.48	Number of galls per AR (Meloidogyne graminicola [3]): 2.5 ± 1.1; Number of galls (Meloidogyne graminicola [3]): 25.6 ± 6.5; reduction in gall numbers (Meloidogyne graminicola [3]): −33%; Fold change vs. control, OsPAL2 expression (OsPAL2): 1.29; Fold change vs. control, OsPAL6 expression (OsPAL6): 1.26; Fold change vs. control, OsC4H expression (OsC4H): 9.87
